Assay results: patent publication US12138272B2, “Methods and compositions for treating amyotrophic lateral sclerosis” (Amylyx Pharmaceuticals, Inc., priority 2022, dated 2024)
In brackets after ≈: the same amount, converted by molar mass. Entries after “also recorded” stand apart in the source; their conditions may differ. Marks after values point to notes of the source that are not given here.

Key:
BSEP [1] = target: T1, BSEP (Homo sapiens, UniProt O95342); experiment: in vitro
[2] = Solubility in stock solvent and assay buffers
BSEP [3] = target: T1, BSEP; experiment: Inhibition of 3H-taurocholic acid uptake by BSEP membrane vesicles (inhibitor assessment); conditions: for inhibitor of BSEP (conclusion in words): criterion >25% concentration-dependent inhibition of probe substrate uptake; for ATP-Dependent Uptake Activity of 3H-taurocholic acid / Signal-to-Noise Ratio / Uptake Activity of 3H-taurocholic acid, Mg-AMP / Uptake Activity of 3H-taurocholic acid, Mg-ATP: 3H-taurocholic acid 1 μM
BSEP [4] = target: T1, BSEP; experiment: ATP-dependent uptake of test article by BSEP-transfected Sf9 membrane vesicles (substrate assessment); conditions: for remaining BSEP activity after cyclosporine A treatment: test article 1 and 10 μM + cyclosporine A 20 μM; for substrate of BSEP (conclusion in words): criteria ≥2-fold ATP-dependent uptake and >50% inhibition by selective inhibitor; for inhibition of test article uptake by cyclosporine A: cyclosporine A 20 μM
[5] = assay buffers, aqueous buffer, kinetic from dmso stock
[6] = methanol, organic solvent or mixture
[7] = test article 1 μM + cyclosporine 20 μM
[8] = test article 10 μM + cyclosporine 20 μM
[9] = test article 10 μM, listed as UA

T1 sequence (O95342 whole entry): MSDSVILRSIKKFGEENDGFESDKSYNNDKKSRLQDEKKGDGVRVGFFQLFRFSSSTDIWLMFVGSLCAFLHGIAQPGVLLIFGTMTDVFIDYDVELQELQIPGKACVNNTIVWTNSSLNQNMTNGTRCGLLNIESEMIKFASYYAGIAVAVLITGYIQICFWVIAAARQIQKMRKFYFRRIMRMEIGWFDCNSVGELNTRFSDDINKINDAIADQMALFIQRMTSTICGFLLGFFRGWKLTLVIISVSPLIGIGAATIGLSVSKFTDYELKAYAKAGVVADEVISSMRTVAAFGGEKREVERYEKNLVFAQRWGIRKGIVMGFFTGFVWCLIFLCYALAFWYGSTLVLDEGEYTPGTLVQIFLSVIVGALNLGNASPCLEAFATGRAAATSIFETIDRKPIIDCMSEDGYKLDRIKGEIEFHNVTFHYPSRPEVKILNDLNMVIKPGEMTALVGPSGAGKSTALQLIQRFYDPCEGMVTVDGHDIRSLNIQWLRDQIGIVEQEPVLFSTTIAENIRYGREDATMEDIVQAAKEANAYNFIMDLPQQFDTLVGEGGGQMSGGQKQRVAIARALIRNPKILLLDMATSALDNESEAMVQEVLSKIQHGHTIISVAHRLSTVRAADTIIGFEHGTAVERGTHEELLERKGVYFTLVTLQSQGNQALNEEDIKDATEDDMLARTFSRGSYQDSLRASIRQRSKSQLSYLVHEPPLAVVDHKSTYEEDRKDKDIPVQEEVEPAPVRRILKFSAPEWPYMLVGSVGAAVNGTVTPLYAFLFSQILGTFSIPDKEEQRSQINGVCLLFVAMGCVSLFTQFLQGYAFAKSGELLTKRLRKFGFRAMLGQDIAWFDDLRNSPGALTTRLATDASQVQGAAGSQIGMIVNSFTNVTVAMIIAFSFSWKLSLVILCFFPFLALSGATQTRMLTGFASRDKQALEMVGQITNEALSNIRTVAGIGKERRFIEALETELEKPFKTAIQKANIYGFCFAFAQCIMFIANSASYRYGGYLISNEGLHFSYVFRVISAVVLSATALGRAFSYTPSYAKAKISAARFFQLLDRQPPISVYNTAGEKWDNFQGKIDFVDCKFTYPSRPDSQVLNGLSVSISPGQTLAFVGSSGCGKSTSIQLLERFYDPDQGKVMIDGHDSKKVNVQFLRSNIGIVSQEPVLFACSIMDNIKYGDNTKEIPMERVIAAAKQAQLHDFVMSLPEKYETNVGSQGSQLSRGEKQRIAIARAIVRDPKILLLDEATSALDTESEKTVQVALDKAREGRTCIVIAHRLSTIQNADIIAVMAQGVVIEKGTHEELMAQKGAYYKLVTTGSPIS

SMILES | potency estimated from few doses at 30 min (BSEP [1]) [µM] | solubility [2, 5] [mM] | solubility [2, 6] [mM] | inhibitor of BSEP (conclusion in words) (BSEP [3]) | ATP-Dependent Uptake Activity of test article (BSEP [4]; test article 1 μM) | Uptake Activity of test article, Mg-AMP (BSEP [4]; test article 1 μM) | Uptake Activity of test article, Mg-ATP (BSEP [4]; test article 1 μM) | Uptake Activity of test article, Mg-AMP (BSEP [4]; [7]) | Uptake Activity of test article, Mg-ATP (BSEP [4]; [7]) | ATP-Dependent Uptake Activity of test article (BSEP [4]; test article 10 μM) [pmol/minute/mg protein] | Uptake Activity of test article, Mg-AMP (BSEP [4]; test article 10 μM) | Uptake Activity of test article, Mg-ATP (BSEP [4]; test article 10 μM) | ATP-Dependent Uptake Activity of test article (BSEP [4]; [8]) | Uptake Activity of test article, Mg-AMP (BSEP [4]; [8]) | Uptake Activity of test article, Mg-ATP (BSEP [4]; [8]) | ATP-dependent BSEP uptake activity relative to AMP uptake (BSEP [4]; test article 1 and 10 μM) [fold] | remaining BSEP activity after cyclosporine A treatment (BSEP [4]) | substrate of BSEP (conclusion in words) (BSEP [4]; test article 1 and 10 μM) | inhibition of test article uptake by cyclosporine A (BSEP [4]; test article 1 and 10 μM) | activity at 30 min, 50 μM (BSEP [1]) [%] | other results
C[C@H](CCC(=O)NCC(=O)O)[C@H]1CC[C@H]2[C@@H]3[C@@H](O)C[C@@H]4C[C@H](O)CC[C@]4(C)[C@H]3CC[C@]12C [Glycoursodeoxycholic acid] | < 10 | 0.1 (≈ 45 µg/mL) | 50 (≈ 22500 µg/mL) | strongly inhibited; also recorded: inhibited | 11.2 pmol/minute/mg protein | BLQ | 11.2 pmol/minute/mg protein | BLQ | BLQ | 14.2 | BLQ | 14.2 pmol/minute/mg protein | 0.00^b pmol/minute/mg protein | 6.93 pmol/minute/mg protein | BLQ | > 2 | No remaining BSEP activity | a substrate of BSEP transporters | inhibited by cyclosporine A | – | activity at 30 min, 10 μM (BSEP [1]): 48.3%; activity at 30 min, 100 μM (BSEP [1]): 10.4%; inhibitor of BSEP (conclusion in words) (BSEP [3]; listed as glycoursodeoxycholic acid): inhibitors of BSEP; ATP-Dependent Uptake Activity of 3H-taurocholic acid (BSEP [3]; inhibitor 10 μM): 8.56 pmol/minute/mg protein; Signal-to-Noise Ratio (BSEP [3]; inhibitor 10 μM): 11.9; Uptake Activity of 3H-taurocholic acid, Mg-AMP (BSEP [3]; inhibitor 10 μM): 0.788 pmol/minute/mg protein; Uptake Activity of 3H-taurocholic acid, Mg-ATP (BSEP [3]; inhibitor 10 μM): 9.35 pmol/minute/mg protein; ATP-Dependent Uptake Activity of 3H-taurocholic acid (BSEP [3]; inhibitor 100 μM): 1.84 pmol/minute/mg protein; Signal-to-Noise Ratio (BSEP [3]; inhibitor 100 μM): 2.89; Uptake Activity of 3H-taurocholic acid, Mg-AMP (BSEP [3]; inhibitor 100 μM): 0.974 pmol/minute/mg protein; Uptake Activity of 3H-taurocholic acid, Mg-ATP (BSEP [3]; inhibitor 100 μM): 2.81 pmol/minute/mg protein; substrate of BSEP (conclusion in words) (BSEP [4]; test article 1 and 10 μM, listed as glycoursodeoxycholic acid): a substrate of BSEP
O=C(O)CCCc1ccccc1 [Sodium phenylbutyrate] | – | 0.25 | 50 | did not meet the criteria for identification as an inhibitor; also recorded: did not inhibit | – | BLQ | BLQ | – | – | – | – | – | – | BLQ | BLQ | – | – | not a substrate of BSEP | – | – | activity at 30 min, 25 μM (BSEP [1]): 77.2%; activity at 30 min, 250 μM (BSEP [1]): 82.4%; ATP-Dependent Uptake Activity of 3H-taurocholic acid (BSEP [3]; inhibitor 25 μM): 19.3 pmol/minute/mg protein; Signal-to-Noise Ratio (BSEP [3]; inhibitor 25 μM): 35.9; Uptake Activity of 3H-taurocholic acid, Mg-AMP (BSEP [3]; inhibitor 25 μM): 0.554 pmol/minute/mg protein; Uptake Activity of 3H-taurocholic acid, Mg-ATP (BSEP [3]; inhibitor 25 μM): 19.9 pmol/minute/mg protein; ATP-Dependent Uptake Activity of 3H-taurocholic acid (BSEP [3]; inhibitor 250 μM): 20.6 pmol/minute/mg protein; Signal-to-Noise Ratio (BSEP [3]; inhibitor 250 μM): 31.6; Uptake Activity of 3H-taurocholic acid, Mg-AMP (BSEP [3]; inhibitor 250 μM): 0.673 pmol/minute/mg protein; Uptake Activity of 3H-taurocholic acid, Mg-ATP (BSEP [3]; inhibitor 250 μM): 21.3 pmol/minute/mg protein; uptake of test article by BSEP vesicles (BSEP [4]; test article 1 and 10 μM): not detected; substrate of BSEP (conclusion in words) (BSEP [4]; test article 1 and 10 μM, listed as sodium phenylbutyrate): not identified as a substrate
C[C@H](CCC(=O)NCCS(=O)(=O)O)[C@H]1CC[C@H]2[C@@H]3[C@@H](O)C[C@@H]4C[C@H](O)CC[C@]4(C)[C@H]3CC[C@]12C [Tauroursodeoxycholic acid] | < 5 | 0.05 (≈ 25 µg/mL) | 10 (≈ 5000 µg/mL) | strongly inhibited; also recorded: inhibited | 14.4 pmol/minute/mg protein | 4.90^c pmol/minute/mg protein | 19.3^b pmol/minute/mg protein | BLQ | BLQ | 22.4 | 2.33 pmol/minute/mg protein | 24.7 pmol/minute/mg protein | 2.81 pmol/minute/mg protein | 3.98 pmol/minute/mg protein | 6.79 pmol/minute/mg protein | > 2 | ≤ 12.6% | a substrate of BSEP transporters | inhibited by cyclosporine A | 5.14 | activity at 30 min, 5 μM (BSEP [1]): 46.2%; inhibitor of BSEP (conclusion in words) (BSEP [3]; listed as TURSO): inhibitors of BSEP; ATP-Dependent Uptake Activity of 3H-taurocholic acid (BSEP [3]; inhibitor 5 μM): 6.71 pmol/minute/mg protein; Signal-to-Noise Ratio (BSEP [3]; inhibitor 5 μM): 10.1^b; Uptake Activity of 3H-taurocholic acid, Mg-AMP (BSEP [3]; inhibitor 5 μM): 0.737 pmol/minute/mg protein; Uptake Activity of 3H-taurocholic acid, Mg-ATP (BSEP [3]; inhibitor 5 μM): 7.45^b pmol/minute/mg protein; ATP-Dependent Uptake Activity of 3H-taurocholic acid (BSEP [3]; inhibitor 50 μM): 0.747 pmol/minute/mg protein; Signal-to-Noise Ratio (BSEP [3]; inhibitor 50 μM): 2.34; Uptake Activity of 3H-taurocholic acid, Mg-AMP (BSEP [3]; inhibitor 50 μM): 0.556 pmol/minute/mg protein; Uptake Activity of 3H-taurocholic acid, Mg-ATP (BSEP [3]; inhibitor 50 μM): 1.30 pmol/minute/mg protein; Signal-to-Noise Ratio (BSEP [4]; test article 1 μM): 3.94; Signal-to-Noise Ratio (BSEP [4]; test article 10 μM): 10.6; Signal-to-Noise Ratio (BSEP [4]; [8]): 1.71; substrate of BSEP (conclusion in words) (BSEP [4]; test article 1 and 10 μM, listed as tauroursodeoxycholic acid): a substrate of BSEP
C[C@H](CCC(=O)O)[C@H]1CC[C@H]2[C@@H]3[C@@H](O)C[C@@H]4C[C@H](O)CC[C@]4(C)[C@H]3CC[C@]12C [Ursodeoxycholic acid] | < 500 | 0.5 (≈ 196 µg/mL) | 100 (≈ 39300 µg/mL) | inhibited uptake of the probe substrate | could not be detected | BLQ | BLQ | BLQ | BLQ | 0.792 | 3.08^b pmol/minute/mg protein | 3.87^b pmol/minute/mg protein | – | BLQ | 5.61^b pmol/minute/mg protein | < 2 | – | not a substrate | – | 64 | IC50 at 30 min (BSEP [1]): < 500 µM; activity at 30 min, 500 μM (BSEP [1]): 4.5%; inhibitor of BSEP (conclusion in words) (BSEP [3]; listed as ursodeoxycholic acid): inhibitors of BSEP; ATP-Dependent Uptake Activity of 3H-taurocholic acid (BSEP [3]; inhibitor 50 μM): 6.04 pmol/minute/mg protein; Signal-to-Noise Ratio (BSEP [3]; inhibitor 50 μM): 9.66; Uptake Activity of 3H-taurocholic acid, Mg-AMP (BSEP [3]; inhibitor 50 μM): 0.697 pmol/minute/mg protein; Uptake Activity of 3H-taurocholic acid, Mg-ATP (BSEP [3]; inhibitor 50 μM): 6.73 pmol/minute/mg protein; ATP-Dependent Uptake Activity of 3H-taurocholic acid (BSEP [3]; inhibitor 500 μM): 0.425 pmol/minute/mg protein; Signal-to-Noise Ratio (BSEP [3]; inhibitor 500 μM): 1.95; Uptake Activity of 3H-taurocholic acid, Mg-AMP (BSEP [3]; inhibitor 500 μM): 0.449 pmol/minute/mg protein; Uptake Activity of 3H-taurocholic acid, Mg-ATP (BSEP [3]; inhibitor 500 μM): 0.873 pmol/minute/mg protein; Signal-to-Noise Ratio (BSEP [4]; test article 10 μM): 1.26; ATP-Dependent Uptake Activity of test article (BSEP [4]; [9]): 0.792^b pmol/minute/mg protein; Signal-to-Noise Ratio (BSEP [4]; [9]): 1.26^b; substrate of BSEP (conclusion in words) (BSEP [4]; test article 1 and 10 μM, listed as ursodeoxycholic acid): not a substrate of BSEP
